From patent publication US8796292B2, “Selective antibacterials for clostridium difficile infections” (GLSynthesis Inc., priority 2009, dated 2014)
In brackets after ≈: the same amount, converted by molar mass. Read-outs that look alike come from different tables or passages of the source. One block for each compound: values may come before it.

Assays:
Test in all cases: agar dilution MIC assay of anaerobic bacteria
L. casei = assay type: cell-based, Lactobacillus casei; conditions: Lacticaseibacillus casei, Micromyx Number 1722, Table 1
Description: (§1) Each compound was assayed against a panel of anaerobic bacteria in culture, consisting of Gram-positive organisms, such as Lactobacilli, Bifidobacteria, Clostridium spp., and Gram-negative bacteria, such as […] fragilis spp., according to guidelines of the Clinical and Laboratory Standards Institute (CLSI document M11-A7, CLSI, Wayne, Pa., 2007). […] One tenth mL of diluted bacteria containing 500-1000 colony-forming units (CFU) was plated and spread, and the plates incubated at 37° C. for 24-48 hours. MIC (minimum inhibitory concentration) is equivalent to the lowest concentration in μg/ml at which growth, i.e., colony formation, is not observed. […] Bacteria were assayed using a reference agar dilution method. Drug dilutions and drug-supplemented agar plates were prepared manually. The test organisms were maintained frozen at −80° C. The isolates were sub-cultured on Supplemented Brucella Agar (SBA) plates in a Bactron II anaerobic chamber and incubated for 48 hours at 35-36° C. in the Bactron II anaerobe chamber. Following inoculation, the drug-supplemented plates were incubated at 35° C. for 48 hours in the anaerobic environment (5% hydrogen, 5% carbon dioxide, 90% nitrogen) of the Bactron II. The MIC in μg/ml was read per Clinical and Laboratory Standards Institute guidelines.

Bi. longum = assay type: cell-based, Bifidobacterium longum; conditions: Bifidobacterium longum; Bi. longum, Micromyx Number 3968, Table 1; read-out: MIC
Description: as §1

E. lentum = assay type: cell-based, Eubacterium lentum; conditions: Eggerthella lenta; E. lentum, Micromyx Number 1274, Table 1; read-out: MIC
Description: as §1

Bi. brevi = assay type: cell-based, Bifidobacterium brevi; conditions: Bifidobacterium; Bi. brevi, Micromyx Number 3967, Table 1
Description: as §1

C. difficile = assay type: cell-based, Clostridium difficile; conditions: for MIC: Clostridioides difficile, read-out: MIC
Description: as §1

Ba. fragilis = assay type: cell-based; conditions: Bacteroides fragilis, Micromyx Number 0123 (ATCC strain)
Description: as §1

L. acidophilus = assay type: cell-based; conditions: Lactobacillus acidophilus, Micromyx Number 0681, Table 1
Description: as §1

[1] = C. diff., Micromyx Number 3579, Table 2
[2] = C. diff., Micromyx Number 3580, Table 2
[3] = C. diff., Micromyx Number 3581, Table 2
[4] = C. diff., Micromyx Number 3582 (ATCC strain), Table 2
[5] = C. difficile, Micromyx Number 1209, Table 1
[6] = C. difficile, Micromyx Number 3579, Table 1
[7] = C. difficile, Micromyx Number 3580, Table 1
[8] = C. difficile, Micromyx Number 3581, Table 1
[9] = C. difficile, Micromyx Number 3582, Table 1
[10] = C. difficile, Micromyx Number 3584, Table 1
[11] = C. difficile, Micromyx Number 3585, Table 1
[12] = C. difficile, Micromyx Number 3586, Table 1
[13] = C. difficile, Micromyx Number 3587, Table 1
[14] = C. difficile, Micromyx Number 3588, Table 1
[15] = C. difficile, Micromyx Number 3589, Table 1
[16] = C. difficile, Micromyx Number 3590, Table 1
[17] = C. difficile, Micromyx Number 3591, Table 1
[18] = C. difficile, Micromyx Number 3593, Table 1
[19] = C. difficile, Micromyx Number 3594, Table 1
[20] = C. difficile, Micromyx Number 3595, Table 1
[21] = C. difficile, Micromyx Number 4381 (ATCC strain), Table 1
[22] = Ba. fragilis, Gram negative, Table 1

SMILES: CN[C@H](CC(C)C)C(=O)N[C@H]1C(=O)N[C@@H](CC(N)=O)C(=O)N[C@H]2C(=O)N[C@H]3C(=O)N[C@H](C(=O)N[C@H](C(=O)O)c4cc(O)cc(O)c4-c4cc3ccc4O)[C@H](O)c3ccc(c(Cl)c3)Oc3cc2cc(c3O[C@@H]2O[C@H](CO)[C@@H](O)[C@H](O)[C@H]2O[C@H]2C[C@](C)(N)[C@H](O)[C@H](C)O2)Oc2ccc(cc2Cl)[C@H]1O [vancomycin, reference compound]
MIC (L. casei): > 16 µg/mL
MIC (Bi. longum): 0.5 µg/mL (≈ 0.345 µM)
MIC (E. lentum): 2 µg/mL (≈ 1.38 µM)
MIC (Bi. brevi): 2 µg/mL (≈ 1.38 µM)
MIC (C. difficile; C. diff. Strain no. 18285, Table 4): 1 µg/mL (≈ 0.69 µM)
MIC (C. difficile; C. diff. Strain no. 19265, Table 4): 1 µg/mL (≈ 0.69 µM)
MIC (C. difficile; C. diff. Strain no. 19273, Table 4): 1 µg/mL (≈ 0.69 µM)
MIC (C. difficile; C. diff. Strain no. 19281, Table 4): 1 µg/mL (≈ 0.69 µM)
MIC (C. difficile; C. diff. Strain no. 19291, Table 4): 1 µg/mL (≈ 0.69 µM)
MIC (C. difficile; C. diff. Strain no. 19369, Table 4): 1 µg/mL (≈ 0.69 µM)
MIC (C. difficile; C. diff. Strain no. 19382, Table 4): 4 µg/mL (≈ 2.76 µM)
MIC (C. difficile; C. diff. Strain no. 19540, Table 4): 1 µg/mL (≈ 0.69 µM)
MIC (C. difficile; C. diff. Strain no. 19580, Table 4): 4 µg/mL (≈ 2.76 µM)
MIC (C. difficile; C. diff. Strain no. 19680, Table 4): 1 µg/mL (≈ 0.69 µM)
MIC (C. difficile; C. diff. Strain no. 19681, Table 4): 2 µg/mL (≈ 1.38 µM)
MIC (C. difficile; C. diff. Strain no. 19683, Table 4): 8 µg/mL (≈ 5.52 µM)
MIC (C. difficile; C. diff. Strain no. 19687, Table 4): 1 µg/mL (≈ 0.69 µM)
MIC (C. difficile; C. diff. Strain no. 20066, Table 4): 4 µg/mL (≈ 2.76 µM)
MIC (C. difficile; C. diff. Strain no. 20152, Table 4): 1 µg/mL (≈ 0.69 µM)
MIC (C. difficile; C. diff. Strain no. 20307, Table 4): 2 µg/mL (≈ 1.38 µM)
MIC (C. difficile; C. diff. Strain no. 20494, Table 4): 4 µg/mL (≈ 2.76 µM)
MIC (C. difficile; C. diff. Strain no. 20680, Table 4): 1 µg/mL (≈ 0.69 µM)
MIC (C. difficile; C. diff. Strain no. 20934, Table 4): 4 µg/mL (≈ 2.76 µM)
MIC (C. difficile; C. diff. Strain no. 21099, Table 4): 2 µg/mL (≈ 1.38 µM)
MIC (C. difficile; [1]): 1 µg/mL (≈ 0.69 µM)
MIC (C. difficile; [2]): 1 µg/mL (≈ 0.69 µM)
MIC (C. difficile; [3]): 4 µg/mL (≈ 2.76 µM)
MIC (C. difficile; [4]): 2 µg/mL (≈ 1.38 µM)
MIC (C. difficile; [5]): 1 µg/mL (≈ 0.69 µM)
MIC (C. difficile; [6]): 1 µg/mL (≈ 0.69 µM)
MIC (C. difficile; [7]): 1 µg/mL (≈ 0.69 µM)
MIC (C. difficile; [8]): 1 µg/mL (≈ 0.69 µM)
MIC (C. difficile; [9]): 0.25 µg/mL (≈ 0.173 µM)
MIC (C. difficile; [10]): 0.5 µg/mL (≈ 0.345 µM)
MIC (C. difficile; [11]): 0.5 µg/mL (≈ 0.345 µM)
MIC (C. difficile; [12]): 0.5 µg/mL (≈ 0.345 µM)
MIC (C. difficile; [13]): 1 µg/mL (≈ 0.69 µM)
MIC (C. difficile; [14]): 2 µg/mL (≈ 1.38 µM)
MIC (C. difficile; [15]): 0.5 µg/mL (≈ 0.345 µM)
MIC (C. difficile; [16]): 1 µg/mL (≈ 0.69 µM)
MIC (C. difficile; [17]): 2 µg/mL (≈ 1.38 µM)
MIC (C. difficile; [18]): 0.5 µg/mL (≈ 0.345 µM)
MIC (C. difficile; [19]): 1 µg/mL (≈ 0.69 µM)
MIC (C. difficile; [20]): 1 µg/mL (≈ 0.69 µM)
MIC (C. difficile; [21]): 1 µg/mL (≈ 0.69 µM)
MIC (Ba. fragilis; B. fragilis, Table 2): 32 µg/mL (≈ 22.1 µM)
MIC (Ba. fragilis; [22]): > 16 µg/mL
MIC (L. acidophilus): 2 µg/mL (≈ 1.38 µM)

MIC (L. casei): > 32 µg/mL
MIC (Bi. longum): > 32 µg/mL
MIC (E. lentum): 32 µg/mL (≈ 68.6 µM)
MIC (Bi. brevi): 32 µg/mL (≈ 68.6 µM)
MIC (C. difficile; [1]): 4 µg/mL (≈ 8.58 µM)
MIC (C. difficile; [2]): 4 µg/mL (≈ 8.58 µM)
MIC (C. difficile; [3]): 2 µg/mL (≈ 4.29 µM)
MIC (C. difficile; [4]): 4 µg/mL (≈ 8.58 µM)
MIC (C. difficile; [5]): 4 µg/mL (≈ 8.58 µM)
MIC (C. difficile; [6]): 4 µg/mL (≈ 8.58 µM)
MIC (C. difficile; [7]): 4 µg/mL (≈ 8.58 µM)
MIC (C. difficile; [8]): 4 µg/mL (≈ 8.58 µM)
MIC (C. difficile; [9]): 16 µg/mL (≈ 34.3 µM)
MIC (C. difficile; [10]): 2 µg/mL (≈ 4.29 µM)
MIC (C. difficile; [11]): 4 µg/mL (≈ 8.58 µM)
MIC (C. difficile; [12]): 2 µg/mL (≈ 4.29 µM)
MIC (C. difficile; [13]): 4 µg/mL (≈ 8.58 µM)
MIC (C. difficile; [14]): 1 µg/mL (≈ 2.14 µM)
MIC (C. difficile; [15]): 4 µg/mL (≈ 8.58 µM)
MIC (C. difficile; [16]): 4 µg/mL (≈ 8.58 µM)
MIC (C. difficile; [17]): 4 µg/mL (≈ 8.58 µM)
MIC (C. difficile; [18]): 4 µg/mL (≈ 8.58 µM)
MIC (C. difficile; [19]): 4 µg/mL (≈ 8.58 µM)
MIC (C. difficile; [20]): 4 µg/mL (≈ 8.58 µM)
MIC (C. difficile; [21]): 2 µg/mL (≈ 4.29 µM)
MIC (Ba. fragilis; B. fragilis, Table 2): > 32 µg/mL
MIC (Ba. fragilis; [22]): > 32 µg/mL
MIC (L. acidophilus): 8 µg/mL (≈ 17.2 µM)
SMILES: CC(C)C(=O)OCCCCCn1cnc2nc(NCc3ccc(Cl)c(Cl)c3)[nH]c(=O)c21 [Compound 332E]
potency and selectivity against C. diff. versus other Gram-positive anaerobes (in words) (C. difficile; summary of MIC panels, Tables 1 and 3): most potent and selective
